Measurements taken from US5998368A, “Derivatives of structurally modified VIP and pharmaceutical compositions containing them” (Yeda Research and Development Co. Ltd., priority 1991, dated 1999).
Read-outs that look alike come from different tables or passages of the source.

Columns and labels:
[1] = system: penile erection in normal male; settings: cited from earlier work
[2] = system: penile reflexes in castrated rats; assay: Penile reflexes (E2, cups) in castrated rats after transdermal application; format: in vivo, rat
Procedure: (a) The ointment composition was: 31.2 μl 10% Sefsol 318™ (glyceryl monocaprylate), and either 0.24 mg stearoyl-VIP in 31.2 μl DMSO (1-2μl per animal) (SEFS in FIG. 1) or 0.24 rig stearoyl-Nle^17 -VIP in the above (SEFS* in FIG. 1).
(b) For other analogs described hereinafter 10 μl of solution were used per animal containing 7 μg of active material in a vehicle containing 5% Sefsol and 20% isopropanol.
In a further set of experiments the effects of stearoyl-VIP compounded with Sefsol 318™ were compared with those of stearoyl-Nle^17 -VIP compounded with Sefsol 318™.
In a second type of biological experiments the effects of compositions containing other modified VIP conjugates compounded with Sefsol 318™ were tested.
Rats with reduced sexual potential due to castration were employed. Male rats (250-300 g, about three month old) were kept in a 12-hours light, 12-hours dark cycle. Experiments were always conducted within the dark period, 2-6 hours after the onset of darkness. Male rats were castrated and given partial testosterone replacement (4 μg/100 g body weight) in the form of daily injection for 14-21 consecutive days (the duration of the experiment). Experiments were conducted one week following surgery.
A procedure was utilized that employed the technique that measures sexual reflexes in the penis, which enables direct evaluation of penile erection following transdermal administration of the drug. Successful reproduction depends, in large part, upon the precise execution of temporally organized, functionally related behavioural units. In these experiments, we concentrated on the final stages of the erection process (reddening of the penis accompanied by its distension and extension leading to complete erection) and monitored the latency time to the first E2 and first cup(^14).
For testing, each animal was restrained in a supine position with the anterior portion of its body enclosed in a loosely fitting cylinder (7 cm diam). After a belt was secured around the torso, the glans penis was extruded from its sheath and gently held perpendicular to the abdomen by a thin wooden applicator positioned at the posterior of the penis. The legs of the male were held by the observer and this position was maintained throughout the test period. The duration of the session was 45 minutes. The latencies and numbers of E2 and cups were recorded and plotted.
An E2 is defined as a complete erection which can be followed by cup in which the penile tip is turned into a cup-like structure, whereby the glands flare out such that the penis is wider in its distal portion than its base. This final stage requires E2 and is probably a pre-requisite for ejaculation (13). Using, all the parameters one can obtain a reliable measure of the sexual activity of the tested rat.
Six to ten animals were tested in this paradigm for each variable. Control animals received ointment compositions without the modified VIP conjugate.

[3] = Skin penetration and body distribution of 125I-labelled conjugates after topical application to the penis; format: in vivo
Text: These experiments were divided into two groups. In the first group of experiments we performed a time course of the distribution of radioactively labelled stearoyl-Nle^17 -VIP (in Sefsol 318™), applied transdermally to the penis of the animals, in various organs of the body. In the second group of experiments we compared the penetration of radioactively labelled VIP, Nle^17 -VIP St-VIP and St-Nle^17 -VIP with Sefsol 318™ following transdermal application. Two to four animals were used for each data point. The derivatives were labelled with 1251 using the chloramine-T based method^(14).
In the first group of experiments, stearoyl-Nle^17 -VIP was radioactively labelled with I^125. Each animal received 2.2 million CPM, in 6μl of the radioactive material+ 26μl ointment (ointment No. 4 in Example 5). Two animals were used for each time point in two independent experiments. To avoid oral absorbance, the animal mouth was sealed. At indicated times following topical application, animals were sacrificed and duplicate tissue samples were removed, weighed and counted in a gamma counter. Tissues measured were: lungs (LU), heart (HE), kidneys (KI), liver (Li) and intestine (IN).
In the second group of experiments compositions of Sefsol 318™ and VIP, St-VIP, Nle^17 -VIP and St-Nle^17 -VIP were prepared. The experiments were performed as in FIG. 7 with the only difference that each animal received a 2.4 million CPM, 2-4 animals were utilized for each variable. Animals were sacrificed 30 minutes after the application of the drug.

Sprague Dawley rats [4] = assay: Single dose toxicity, intravenous (tail vein); format: in vivo, rat; settings: for acute intravenous median lethal dose (LD50): with vehicle
Procedure: The single dose toxicity of stearoyl-Nle^17 -VIP injected intravenously, into the tail vein, was investigated in 4 groups of six male and six female rates [Sprague Dawley (S.D.) strain, purchased from Levinstein, Yokneam, Israel).
Test Groups constitution:
2. Vehicle (Sefsol 5% + isopropanol 50%)
3. Stcaroyl-Nle^17 -VIP 7 μg/rat + vehicle
4. Stearyol-Nle^17 -VIP 7,000 μg/rat + vehicle

[5] = Stability of the test material; format: physicochemical
Sprague Dawley rats [6] = assay: Repeated dose toxicity, topical, 13 weeks
Procedure: The repeated dose toxicity of stearoyl-Nle^17 -VIP administered topically was investigated in 80 SPF (Specified pathogen free) rats divided into 4 groups of ten male and ten female Sprague Dawley (S.D.) strain rats purchased from Harlan, Olac, England.
Group 1: 7 μg stearoyl-Nle^17 -VIP+vehicle (1× dose)
Group 2: 700 μg stearoyl-Nle^17 -VIP+vehicle (100× dose)
Group 4: Vehicle only (5% Sefsol+20% isopropanol)

[7] = Table 3, topical, 7 μg in 5% Sefsol and 20% isopropanol, castrated rats, 45 min session
[8] = Group 3, 7 μg/rat + vehicle i.v.
[9] = daily topical 7, 700, 3500 μg, 13 weeks
[10] = daily topical 7, 700, 3500 μg, 13 weeks, male and female rats

## Vasoactive intestinal peptide (HSDAVFTDNYTRLRKQMAVKKYLNSILN) [VIP]
[1]; as little as 1 μg into the corpus cavernosum, coupled with sexual stimulation
  penile response: facilitated full erection
[1]; up to 20 μg into the corpus cavernosum, without sexual stimulus
  penile response: caused only slight swelling of the penis but not erection

## stearoyl-norleucine^17 -VIP [St-Nle^17 -VIP]
[2]; [7]
  No. of E2: 9
  No. of cups: 27
[2]; pharmacological experimentation, rat
  biologically active dose: 7 μg per rat
[2]; topical, in Sefsol 318 ointment (SEFS*), castrated rats, 45 min session, FIG. 1
  latency to first E2: about 1 minute
[2]; topical, in Sefsol 318 ointment (SEFS*), castrated rats, 45 min session, FIG. 2
  latency to first cup: 10 min
[2]; topical, in Sefsol 318 ointment, castrated rats, 45 min session, FIG. 3
  number of E2 during the test period: 34
[2]; topical, in Sefsol 318 ointment, castrated rats, 45 min session, FIG. 4
  number of cups: 20
[2]; transdermal, Sefsol 318 composition, compared with stearoyl-VIP in Sefsol 318
  efficiency according to all the four parameters tested: more efficient
[3]; 125I-labelled, topical in Sefsol 318, FIG. 7
  disappearance from organs, time after administration: 2.5 h
[3]; 125I-labelled, topical in Sefsol 318, lungs, heart, kidneys, liver, intestine, FIG. 7
  peak deliveries to organs, time after administration: 15 to 60 min
[3]; 30 minutes after topical application in Sefsol 318, compared with VIP, Nle17-VIP, St-VIP, FIG. 8
  concentrations in kidney, liver and intestines: highest concentrations
Sprague Dawley rats [4]; [8]
  mortality: No mortality
  necrotic reaction at the site of injection (tail skin), share of animals: 58%
Sprague Dawley rats [4]; Group 4, 7,000 μg/rat + vehicle i.v.
  necrotic reaction at the site of injection (tail skin), share of animals: all the animals
Sprague Dawley rats [4]; Group 4, 7,000 μg/rat + vehicle i.v., within 3 hours after administration
  mortality: Seven rats (3 male and 4 female out of 12) died
Sprague Dawley rats [4]; combined males and females
  acute intravenous median lethal dose (LD50): < 7,000 μg
Sprague Dawley rats [4]; male rats
  acute intravenous median lethal dose (LD50): 7,000 μg/male rat
Sprague Dawley rats [4]; surviving rats of all groups
  other side effects: No other side effects
Sprague Dawley rats [4]; two weeks after i.v. dose, ANOVA versus vehicle control group
  body weight gain: increased weight gain
[5]
  stability compared with stearoyl-VIP: more stable
[5]; powder
  Stability: for a year
[5]; refrigerated in a solubilized form
  Stability: for at least six weeks
Sprague Dawley rats [6]; [9]
  adverse effects: No dose related adverse effects
  clinical pathology (hematology, clinical chemistry): No dose related or sex related biologically meaningful treatment effects
Sprague Dawley rats [6]; [10]
  body weight gain and food consumption: No significant differences
  mortality: No mortality associated with drug application
Sprague Dawley rats [6]; daily topical 7, 700, 3500 μg, 13 weeks, versus control group
  organ weight analysis: No treatment related differences
Sprague Dawley rats [6]; daily topical application for 13 weeks, any of the dosages tested
  overall conclusion, serious adverse effects: did not cause any serious adverse effects
